What all share (assay type): cell-based, human
The subject of series [1] is Vit.C-MSCs. The series can be described thus: Evaluation of toxicity of aspirin on Vit.C-MSCs (cck-8). Particulars: aspirin concentration of 5 mM or less, 24 hours, cck-8 absorbance at 450 nm.
Method: The Vit.C-MSCs cultured in a medium containing vitamin C of Example 1 were seeded on a 96-well cell culture plate at a concentration of 1×10^4 cells/plate, and then incubated overnight for cell adherence and stabilization. Then, the cells were cultured in a fresh RKCM-N medium, that is, keratinocyte-SFM containing 5% FBS, 2 mM NAC, 0.2 mM ascorbic acid, 0.09 mM calcium, 5 ng/ml rEGF, 5 μg/ml insulin and 74 ng/ml hydrocortisone, supplemented with aspirin in various concentrations of 0.005 mM, 0.001 mM, 0.05 mM, 0.1 mM, 0.5 mM, 1 mM, 5 mM and 10 mM, for 24 hours. A cck-8 (cell counting Kit-8, Dojindo) solution (10 μl/100 μl) was added to each well and reacted for 2 hours, and the absorbance at 450 nm was measured using a plate reader (Lonza).
For series [2], the system named is Vit.C-MSCs. The series can be described thus: Characteristics of Vit.C-MSCs cultured in aspirin-containing medium (microscope, Luna automated cell counter). Particulars: aspirin concentration of 1 mM or less, 24 hours. How it is done:
The Vit.C-MSCs cultured in a medium containing vitamin C of Example 1 were incubated for 2 days for adherence and stabilization. Then, the Vit.C-MSCs were cultured in fresh RKCM-N medium supplemented with concentrations of 0.1 mM, 0.5 mM, 1 mM and 10 mM of aspirin for 24 hours. The cell morphologies of Vit.C-MSCs by aspirin were monitored with an […] (100× magnification, Leica DMIL) (FIG. 2), and the proliferation rate, viability and cell size were analyzed using a Luna automated cell counter (Logoy) (FIG. 3).

The subject of series [3] is CD marker expression on the stem cell surface. The series can be described thus: Surface CD marker expression by FACS, overall statement. Particulars: 0.1 mM, 0.5 mM and 1 mM of aspirin, 24 hours. How it is done: The Vit.C-MSCs cultured in a medium containing vitamin C were cultured for 2 days for adherence and stabilization, and were cultured in fresh RKCM-N media supplemented with aspirin at concentrations of 0.1 mM, 0.5 mM and 1 mM for 24 hours. The CD marker expression on the stem cell surface in the following Table 2 was compared between two types of MSCs, that is, Vit.C-MSCs and ASP-Vit.C-MSCs cultured in aspirin using FACS.

As for `CC(=O)Oc1ccccc1C(=O)O` [aspirin], the “cytotoxicity of Vit.C-MSCs” value in series [1] is reported as “almost no cytotoxicity”. In series [2], the “cell size of stem cells” value was “did not affect”, the “morphology of stem cells” value is “did not affect”, the “proliferation rate of stem cells” value was “did not affect” and the “viability of stem cells” value is listed as “did not affect”. In addition, in series [3], the “CD marker expression on the stem cell surface” value is reported as “not changed”.
